Here are results for three compounds from US20040092517A1, “Phenyl derivatives and their use in the treatment of thromboembolic disorders or tumours” (priority 2001, published 2004).

Usually IC50 stands for the midpoint of a concentration-inhibition curve. Read a high IC50 as weaker potency in that assay.

One test addresses factor Xa (Homo sapiens, UniProt P00742). Briefly: Inhibition of factor Xa. It counts as biochemical. From the text: The inhibition of factor Xa by the compounds according to the invention and the measurement of the anticoagulant and antithrombotic activity can be determined by conventional in-vitro or in-vivo methods. A suitable method is described, for example, by J. Hauptmann et al. in Thrombosis and Haemostasis 1990, 63, 220-223.
The inhibition of factor Xa can be measured, for example, by the method of T. Hara et al. in Thromb. Haemostas. 1994, 71, 314-319.

The next test has as its target T1, factor VIIa (Homo sapiens, UniProt P08709).
T1 sequence (P08709 213-466 limits assumed): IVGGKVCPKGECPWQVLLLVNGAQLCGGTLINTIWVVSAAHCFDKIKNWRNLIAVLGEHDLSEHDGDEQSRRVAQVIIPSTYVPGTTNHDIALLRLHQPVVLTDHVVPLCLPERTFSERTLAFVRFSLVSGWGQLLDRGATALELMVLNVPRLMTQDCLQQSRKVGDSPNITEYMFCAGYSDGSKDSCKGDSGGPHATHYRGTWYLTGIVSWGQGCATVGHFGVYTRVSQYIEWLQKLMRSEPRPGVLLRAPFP
T1 sequence (P08709 61-212 partner limits assumed): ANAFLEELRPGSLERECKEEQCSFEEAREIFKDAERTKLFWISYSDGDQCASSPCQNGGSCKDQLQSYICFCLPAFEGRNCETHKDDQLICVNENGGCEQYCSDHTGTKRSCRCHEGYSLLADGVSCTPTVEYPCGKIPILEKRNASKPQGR
Briefly: Inhibition of factor VIIa. It counts as biochemical. From the text: Coagulation factor VIIa initiates the extrinsic part of the coagulation cascade after binding to tissue factor and contributes to the activation of factor X to give factor Xa. Inhibition of factor VIIa thus prevents the formation of factor Xa and thus subsequent thrombin formation. The inhibition of factor VIIa by the compounds according to the invention and the measurement of the anticoagulant and antithrombotic activity can be determined by conventional in-vitro or in-vivo methods. A conventional method for the measurement of the inhibition of factor VIIa is described, for example, by H. F. Ronning et al. in Thrombosis Research 1996, 84, 73-81.

SMILES strings stand for the structures. Counter-ions that a name gives are not always drawn.

Sequence of factor Xa (P00742 235-488 limits assumed): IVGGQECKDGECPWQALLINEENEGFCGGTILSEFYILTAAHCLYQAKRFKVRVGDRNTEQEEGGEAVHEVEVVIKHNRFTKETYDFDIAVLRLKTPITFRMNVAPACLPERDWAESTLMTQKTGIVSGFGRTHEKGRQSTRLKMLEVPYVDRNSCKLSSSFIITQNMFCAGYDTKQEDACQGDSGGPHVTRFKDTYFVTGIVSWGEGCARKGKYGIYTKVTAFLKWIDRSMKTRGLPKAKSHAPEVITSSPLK
Sequence of factor Xa (P00742 41-179 partner limits assumed): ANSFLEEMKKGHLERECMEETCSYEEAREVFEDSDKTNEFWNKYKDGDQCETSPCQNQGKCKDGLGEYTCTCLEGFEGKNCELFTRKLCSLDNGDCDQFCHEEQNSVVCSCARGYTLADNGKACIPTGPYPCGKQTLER

As to `CS(=O)(=O)c1ccccc1-c1ccc(OC(C(=O)Nc2cccc(C(=N)N)c2)c2ccccc2)cc1` (stereo not drawn) [Example 1, N-(3-amidinophenyl)-2-(2′-methanesulfonylbiphenyl-4-oxyl)-2-phenylacetamide], the values for the IC50 at factor Xa and on factor VIIa were 110 nM and 46 nM, respectively.
Consider `N=C(N)c1cccc(NC(=O)C(Nc2ccc(-c3ccccc3S(N)(=O)=O)cc2)c2ccccc2)c1` (stereo not drawn) [Example 5.6, N-(3-amidinophenyl)-2-(2′-aminosulfonylbiphenyl-4-amino)-2-phenylacetamide, trifluoroacetate], for which the IC50 against factor Xa came to 20 nM; at factor VIIa it was 13 nM.
For `CC(C)(C)NS(=O)(=O)c1ccccc1-c1ccc(NC(C(=O)Nc2cccc(C(=N)N)c2)c2ccccc2)cc1` (stereo not drawn) [Example 5.5, N-(3-amidinophenyl)-2-(2′-tert-butylaminosulfonylbiphenyl-4-amino)-2-phenylacetamide], the IC50 against factor Xa worked out at 140 nM; on factor VIIa, 550 nM.
